This note sets out measurements from patent publication US20170014467A1, “COMPOSITION AND THE USE THEREOF” (INFINITUS (CHINA) COMPANY LTD., priority 2015, published 2017).

Each structure is given as a SMILES string.

Data set [1] concerns hyperuricemia model of rats. The data set can be described thus: Potassium oxonate hyperuricemia model of rats: serum uric acid, urea nitrogen and creatinine after 15 d intragastric administration (Example 22). The class given is in vivo. Conditions: allopurinol 27 mg/kg + potassium oxonate 1.5 g/kg.
Procedure: 105 SPF grade SD rats, all of which are male and have a body weight of 200±20 (g), provided by Beijing Vital River Laboratory Animal Technology Co., Ltd. (license number: SOCK (Beijing) 2012-0001) were taken. Potassium oxonate, Jinan Chenghuishuangda Chemical Co., Ltd. product with the batch number of 12042001, was prepared with 0.1% CMC-Na into a suspension of a concentration of 0.15 g/ml in an amount for 3 d each time and the stock was stored at 4° C. Allopurinol, Tokyo chemical industry Co. Ltd. product with the batch number of MYRYA-IR, was prepared with 0.1% CMC-Na into a suspension of a concentration of 2.7 g/ml in an amount for 3 d each time and the stock was stored at 4° C. . Uric acid and urea nitrogen test kit were provided by Centronic GmbH company in German, with the batch numbers of UF03121HH6G and UF01121GG66G respectively, and creatinine test kit was provided by Shanghai Lanyi Technology Co. Ltd. with the batch number of R102APA. […]
The body weights of the rats were monitored, the blood samples were collected to measure the uric acid, creatinine and urea nitrogen before the experiments and at the 15th day of the administration, and the variance ratio of the serum uric acid levels was measured and calculated. […]
A short description of data set [2]: Animal body weights in the hyperuricemia rat experiment (Example 22). The class given is in vivo, SD rats. Conditions: allopurinol 27 mg/kg + potassium oxonate 1.5 g/kg, intragastric, mean ± SD. The procedure: (§1) 105 SPF grade SD rats, all of which are male and have a body weight of 200±20 (g), provided by Beijing Vital River Laboratory Animal Technology Co., Ltd. (license number: SOCK (Beijing) 2012-0001) were taken. Potassium oxonate, Jinan Chenghuishuangda Chemical Co., Ltd. product with the batch number of 12042001, was prepared with 0.1% CMC-Na into a suspension of a concentration of 0.15 g/ml in an amount for 3 d each time and the stock was stored at 4° C. Allopurinol, Tokyo chemical industry Co. Ltd. product with the batch number of MYRYA-IR, was prepared with 0.1% CMC-Na into a suspension of a concentration of […] in an amount for 3 d each time and the stock was stored at 4° C. . Uric acid and urea nitrogen test kit were provided by Centronic GmbH company in German, with the batch numbers of UF03121HH6G and UF01121GG66G respectively, and creatinine test kit was provided by Shanghai Lanyi Technology Co. Ltd. with the batch number of R102APA.
SD rats were adapted for 5 days in the experimental environment, and randomly divided by body weight into normal control group, model group, allopurinol group, Sample 1 (the composition of Chinese herbal medicines and tuna extract prepared in Example 18) high-dose group and low-dose group and Sample 2 (the composition of Chinese herbal medicines prepared in Example 18 excluding tuna extract) high-dose group and low-dose group. According to the clinical dose, the intragastric doses of Samples 1 and 2 were 5 times larger (0.2 ml/100 g) and 30 times larger (1.25 ml/100 g) than the recommended amount for human body for the low-dose groups and high-dose groups, respectively.
(§2) The same volume of drinking water was intragastrically administered to the normal control group every day, and the potassium oxonate was intragastrically administered to each of the rest groups of rats every morning at 1.5 g·kg^−1·d^−1; the same volume of physiological saline was intragastrically administered to the model group in the afternoon; the allopurinol was intragastrically administered to the allopurinol group at 27 mg·kg^−1·d^−1 in the afternoon; the samples to be tested of different doses diluted to the same volume were intragastrically administered to the Sample 1 of high-dose and low-dose groups and the Sample 2 of high-dose and low-dose groups in the afternoon.
(§3) The body weights of the rats were monitored, the blood samples were collected to measure the uric acid, creatinine and urea nitrogen before the experiments and at the 15th day of the administration, and the variance ratio of the serum uric acid levels was measured and calculated.

Data set [3] deals with hyperuricemia model of rats. The data set can be described thus: Comparative test in potassium oxonate hyperuricemia rats: serum uric acid, urea nitrogen and creatinine (Example 23). The class given is in vivo. Conditions: 15 d intragastric, allopurinol 27 mg/kg + potassium oxonate 1.5 g/kg, mean ± SD. An excerpt:
(license number: SOCK (Beijing) 2012-0001) were taken. […] Allopurinol, Tokyo chemical industry Co. […] Uric acid and urea nitrogen test kit were provided by Centronic GmbH company in German, with the batch numbers of UF03121HH6G and UF01121G[…] respectively, and creatinine test kit was provided by Shanghai Lanyi Technology Co. Ltd. with the batch number of […]. […] Modeling principle: the rats were intragastrically administered with the chemical uricase inhibitor, potassium oxonate to inhibit the uricase activity in the rats, which make the uric acid in their body unable to be decomposed and resulting in an increase of serum uric acid to replicate the hyperuricemia model of rats. The body weights of the rats were monitored, the blood samples were collected to measure the uric acid, creatinine and urea nitrogen before the experiments and at the 15th day of the administration, and the variance ratio of the serum uric acid levels was measured and calculated. Comparative Test […] Coicis semen 18, Cichorii Herba 8, […] Herba 8 and Pueraia Lobata Radix 8. The health food having the function of lowering uric acid provided in Comparative Example 2 of the present invention is prepared from the following components in parts by weight: Coicis semen 18, Motherwort 10, Cichorii Herba 8, […] Herba 8, Pueraia Lobata Radix 8 and tuna extract 0.1. […] Coicis semen 18, […] semen 9, Cichorii Herba 8, […] […]

Data set [4] is described as follows: Animal body weights in the comparative test (Example 23). The class given is in vivo, SD rats. The note with it: allopurinol 27 mg/kg + potassium oxonate 1.5 g/kg, mean ± SD. The procedure: as §1, §2, §3
Experimental group: Sample 1—the composition prepared in Example 1.

Regarding `Oc1ncnc2[nH]ncc12` [Allopurinol], the Creatinine in data set [1] (model group 31.0 ± 3.3, mean ± SD) was determined as 27.9 ± 2.2 µmol/L; in data set [3] (model group 31.0 ± 3.3), 27.9 ± 2.2 µmol/L. The “Uric Acid” value in data set [1] (model group 256.4 ± 41.3, mean ± SD) was determined as 31.8 ± 10.3 µmol/L; in data set [3] (model group 256.4 ± 41.3) it was 31.8 ± 10.3 µmol/L. For the same compound, the “animal body weights, Before Experiments” value in data set [2] (baseline, N=15) came out at 290 ± 13 g; in data set [4] (baseline, N=15) it was 290 ± 13 g. Also, the “animal body weights, 1 week after treatment” value in data set [2] and in data set [4] was 322 ± 20 g in each case. Moreover, the “animal body weights, 2 weeks after treatment” value in data set [2] and in data set [4] was 352 ± 24 g throughout. Besides, the “animal body weights, 3 weeks after treatment” value in data set [2] and in data set [4] was 366 ± 28 g each time. Moreover, the “animal body weights, 4 weeks after treatment” value in data set [2] and in data set [4] was 387 ± 29 g throughout.
